molecular target: Kir1.1 (ROMK1) (Homo sapiens (Human), UniProt P48048); test: ROMK electrophysiology assay (IonWorks Quattro whole cell voltage clamp); assay type: cell-based; conditions: not given
Sequence (P48048 whole entry): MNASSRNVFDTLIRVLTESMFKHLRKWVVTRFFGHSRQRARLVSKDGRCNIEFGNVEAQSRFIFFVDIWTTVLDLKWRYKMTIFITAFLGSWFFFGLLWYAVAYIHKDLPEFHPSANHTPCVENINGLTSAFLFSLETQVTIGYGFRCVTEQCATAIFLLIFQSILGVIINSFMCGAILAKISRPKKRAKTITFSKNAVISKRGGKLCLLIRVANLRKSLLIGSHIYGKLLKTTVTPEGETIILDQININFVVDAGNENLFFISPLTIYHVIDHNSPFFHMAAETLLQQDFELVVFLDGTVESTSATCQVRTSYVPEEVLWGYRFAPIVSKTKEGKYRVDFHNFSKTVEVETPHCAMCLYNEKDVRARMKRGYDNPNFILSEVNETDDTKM

Row | SMILES | IC50 [nM]
1 | COc1cc(CC(=O)N2CCN(CCc3ccc4c(c3C)COC4=O)CC2)c(F)cc1C#N [Example 48] | 35
2 | O=C1OCc2cc(CCN3CCCN(C(=O)Cc4ccc(-n5cnnn5)cc4)CC3)ccc21 [Example 11] | 12

same assay, conditions: Chinese hamster ovary cells stably expressing Kir1.1; block during voltage step to 0 mV; 6 min compound incubation; read-out: ROMK Electrophysiology Assay IC50

Row | SMILES | IC50 [nM]
3 | Cc1c(CCN2CCN(C(=O)Cc3ccc(-n4cnnn4)cc3)CC2)ccc(F)c1C#N [Example 122] | 37
4 | Cc1c(CCN2CCN(C(=O)Cc3cc(F)c(C#N)cc3F)CC2)ccc2c1COC2=O [Example 59] | 94
5 | Cc1c(CCN2CCN(C(=O)C3CCc4nc(-n5cnnn5)ccc43)CC2)ccc2c1COC2=O (single isomer, unassigned) [Example 96] | 61
6 | Cc1c([C@@H](O)CN2CCN(C(=O)Cc3ccc(-n4cnnn4)nc3)C3CC32)ccc2c1COC2=O (stereo partly drawn) [Example 217, 5-[(1R)-1-hydroxy-2-(5-{[6-(1H-tetrazol-1-yl)pyridin-3-yl]acetyl}-2,5-diazabicyclo[4.1.0]hept-2-yl)ethyl]-4-methyl-2-benzofuran-1(3H)-one] | 56
7 | C[C@H]1Cc2cc(CCN3CCN(C(=O)C4CCc5nc(-n6cnnn6)ccc54)CC3)ccc2C(=O)O1 (single isomer, unassigned) [Example 177] | 100
8 | N#Cc1ccc(CCN2CCN(C(=O)Cc3ccc(-n4cnnn4)cc3)CC2)cc1F [Example 39] | 63
